Measurements from PubChem BioAssay (NCI).
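These data come from cells grown in 96-well plates and exposed to compound for 48 hours at five concentrations. The concentration for 50% growth inhibition is given as GI50. The concentration for full growth arrest is given as TGI.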

Tests used:
Experiment in all cases: NCI tumour cell line growth inhibition, 48 h
[1] = test system: HOP-18 NSCLC
[2] = test system: LXFL 529 NSCLC
[3] = test system: SNB-78 CNS
[4] = test system: XF 498 CNS
[5] = test system: KM20L2 colon
[6] = test system: M19-MEL melanoma
[7] = test system: MDA-N
[8] = test system: P388 leukemia
[9] = test system: SN12K1 renal
[10] = test system: P388/ADR leukemia
[11] = test system: RXF-631 renal

SMILES | TGI [1] [µM] | TGI [2] [µM] | TGI [3] [µM] | TGI [4] [µM] | TGI [5] [µM] | TGI [6] [µM] | TGI [7] [µM] | TGI [11] [µM] | also measured
CC1C[C@]2(C[C@@H](C)C(=O)O2)O[C@@H]2CC3(C)[C@@H]4CCC5C(C)(C)OC(=O)C[C@H]6OO[C@]4(CC[C@]3(C)C12)CC56O (some centres undefined) | > 100 | > 100 | > 100 | > 100 | – | – | – | – | –
CCCCN[C@H]1C2C3CC4C5CC(C42)C1(C)C53 (some centres undefined) | > 100 | > 100 | > 100 | – | > 100 | > 100 | – | – | –
COc1ccc(-c2cc(-c3cc(Cl)cc(Br)c3O)[nH]c(=O)n2)cc1 | 55.7 | 30 | 64.2 | – | 38.6 | 46.4 | – | – | –
COc1c(-c2ccc(O)c(O)c2)oc2c(O)c(O)cc(O)c2c1=O | – | – | – | – | – | – | > 100 | – | –
O=S1(=O)CS(=O)(=O)OCCO1 | 436 | – | 140 | 47.1 | 331 | 126 | 80.3 | – | TGI [8]: 119 µM; TGI [9]: 92.4 µM; TGI [10]: 91.8 µM
COC(=O)N/N=C(/CCC(=O)Nc1ccc(C)c(C)c1)CC(=O)C(C)(C)C | > 100 | > 100 | – | > 100 | > 100 | > 100 | – | – | –
CCOC(=O)C1=C(C)N(NC(N)=O)C(C)(O)C12CCOC2=O (centres undefined) | – | > 100 | 34.5 | > 100 | > 100 | > 100 | – | > 100 | –
Cc1ccn2c(CCc3nnc4cc(C)ccn34)nnc2c1 | – | – | – | – | – | – | > 100 | – | –
CCCCCCCCCCCCCCCC(=O)OCC1OC(OC)C2NP(=O)(N(CCCl)CCCl)OC1C2O (centres undefined) | 33.6 | 8.06 | 19.2 | 7.83 | 46.7 | > 75.3 | – | 25.7 | –
COC(=O)C(CBr)CBr | – | 3.22 | 3.59 | 4.54 | – | 17.2 | 9.22 | 8.96 | –
CCOC(=N)CC(=O)Nc1cccc(Cl)c1 | – | > 100 | > 100 | > 100 | > 100 | > 100 | – | > 100 | –
CC1(C)C(=O)/C=C\C(=O)C(C)(C)C(=O)/C=C\C(=O)C(C)(C)C(=O)/C=C\C(=O)C(C)(C)C(=O)/C=C\C1=O | 40.6 | 21.3 | 50 | 51.4 | 83.2 | 40.6 | > 100 | – | –
C/C(=N\NC(=S)N1CC2CCC(CC2)C1)c1cccc(C)n1 | – | – | – | – | – | – | 17.8 | – | –
CC(=O)[CH-]C(=O)c1ccccc1.CC(=O)[CH-]C(=O)c1ccccc1.Cl.[O-]c1ccccn1.[O-]c1ccccn1.[Ti+4] | – | > 100 | – | – | > 100 | > 100 | – | – | GI50 [5]: > 100 µM; GI50 [2]: > 100 µM; GI50 [6]: > 100 µM
NC(N)=Nc1nc2ccc([N+](=O)[O-])cc2[nH]1 | – | – | – | – | – | – | > 100 | – | –
COc1cc2c(cc1OC)NC(=O)NC(Cc1ccc3c(c1)OCO3)CC2 (centres undefined) | – | > 100 | > 100 | > 100 | > 100 | > 100 | – | – | –
CC1=C(Cl)C=CP(=O)(OC(C)C)C1 (centres undefined) | > 100 | > 100 | > 100 | – | > 100 | > 100 | – | > 100 | –
O=C(CC1(O)C(=O)Nc2ccccc21)c1ccc(O)cc1 (centres undefined) | > 100 | > 100 | > 100 | – | > 100 | > 100 | – | > 100 | –
Clc1ccc2nc(-c3ccccc3)nc(Cl)c2c1 | – | > 100 | > 100 | – | > 100 | > 100 | – | > 100 | –
CC1=C(C(=O)Nc2ccc([N+](=O)[O-])cc2)C(c2ccc3c(c2)OCO3)C(C(=O)Nc2ccc([N+](=O)[O-])cc2)=C(C)N1 | > 100 | > 100 | > 100 | – | > 100 | 61.6 | – | – | –
CCOC(=O)[C@H]1Nc2ccc([N+](=O)[O-])cc2C2c3ccccc3CC21 (some centres undefined) | – | 49.3 | > 100 | 82.7 | 54 | 70.7 | – | – | –

SMILES | TGI [1] [µM] | TGI [2] [µM] | TGI [3] [µM] | TGI [4] [µM] | TGI [5] [µM] | TGI [6] [µM] | TGI [7] [µM] | TGI [11] [µM] | also measured
Oc1ccc(CCNCc2cc3c(cc2Br)OCO3)cc1 | – | – | – | – | – | – | > 100 | – | –
O=c1c(NO)c([N+](=O)[O-])cnn1-c1ccccc1 | 37.5 | 3.17 | 39.2 | 8.38 | 18.3 | 12.2 | 4.02 | 6.18 | –
Cc1ccc(-c2cc(=O)c3cc(C)c(C)c(C(=O)O)c3o2)cc1N | > 100 | > 100 | > 100 | > 100 | > 100 | > 100 | – | > 100 | –
C=CC1(NS(=O)(=O)c2ccc(C)cc2)CCC(C(C)(C)C)CC1 (centres undefined) | > 100 | > 100 | > 100 | – | > 100 | > 100 | – | – | –
CC1(C)C=N[N+]2(C)C3C=CC(CC3)C12 (centres undefined) | > 100 | > 100 | > 100 | – | > 100 | > 100 | – | > 100 | –
O=[N+]([O-])c1ccccc1C=NC12CC3CC(CC(C3)C1)C2 | > 100 | > 100 | > 100 | > 100 | > 100 | > 100 | – | > 100 | –
CN[C@@H](C)[C@H](N)c1ccccc1 | > 100 | > 100 | > 100 | – | – | – | – | > 100 | –
CSc1nc(NC2OC(COC(C)=O)C(OC(C)=O)C(OC(C)=O)C2OC(C)=O)c(-c2csc(N)n2)c(=O)n1C (centres undefined) | > 100 | > 100 | 76.8 | – | > 100 | > 100 | – | – | –
CCOC(=O)c1oc2ccc([N+](=O)[O-])c3c2c1CCC3 | > 100 | > 100 | > 75 | 41 | > 100 | > 100 | > 100 | > 100 | –
CNS(=O)(=O)NN(C)S(=O)(=O)c1ccc2ccccc2c1 | – | > 100 | – | – | > 100 | > 100 | – | > 100 | –
Cc1ccc(NC(=S)SCCC(=O)O)cc1 | – | > 100 | > 100 | – | > 100 | – | – | > 100 | –
O=C(O)CCc1c2ccc(=O)c(O)c-2oc2c(O)c(O)ccc12 | – | – | – | – | – | – | 36.5 | – | –
COc1ccc(/C(Cl)=C(\c2ccc(OCCN(C)C)cc2)c2ccc(OC(=O)C(C)(C)C)cc2)cc1 | – | 27 | 33.2 | 23.7 | 12.4 | 26.6 | – | – | –
C=C1C2CC(OC(C)=O)C3(C)C(c4ccoc4)OC(=O)[C@@H](O)[C@]13OC1C[C@H](OC(C)=O)C(C)(C)[C@H](CC(=O)OC)[C@]12C (some centres undefined) | > 100 | > 100 | > 100 | – | > 100 | > 100 | – | > 100 | –
O=[N+]([O-])c1cc(Cl)ccc1OCc1ccccc1 | – | > 100 | > 100 | > 100 | – | > 100 | – | > 100 | –
O=S(=O)([O-])[O-].[Cl-].[NH2-].[NH2-].[NH2-].[NH2-].[Ru+3].c1ccncc1 | – | > 100 | – | – | > 100 | – | – | – | –
C/C(=N\NC(=S)N1CCCCCCCCCCCC1)c1ccccn1 | – | – | – | – | – | – | 1.16 | – | –
CCCCN(CCCC)CCC(O)c1cc2c(Cl)cc(Cl)cc2c2cc(C(F)(F)F)ccc12 (centres undefined) | – | – | – | – | – | – | 26 | – | –
CC(CNCCCNCCNCCCNCO)[N+](=O)[O-] (centres undefined) | 28.3 | 13.9 | 48.3 | 29.9 | 31.7 | – | – | 30.3 | –
C/C(=N\N=C(\[Se])N(C)C)c1ccccn1 | 12.1 | 13.8 | 15.9 | 20.6 | 12.6 | 5.02 | 26.3 | 74.1 | TGI [8]: < 0.01 µM; TGI [9]: 13.9 µM; TGI [10]: < 0.01 µM
